Results reported in patent US20140227238A1, “PEPTIDES HAVING PROTECTIVE EFFECT TOWARDS THE INFLAMMATORY ACTIVITY OF PEPTIDE 31-43 OF A-GLIADIN IN CELIAC DISEASE” (CRA-CONSIGLIO PER LA RICERCA E LA, priority 2011, published 2014).
“Also recorded” adds a separate entry of the source.

What was measured:
[1] = system: K562(S) cells; test: K562(S) cell agglutination test; type: cell-based, human; conditions: for (Δ) O.D. (protecting activity): incubated together with p31-43; for protecting activity towards p31-43 induced agglutination of K562 cells: with p31-43
Experimental: K562(S) cells, an immature subclone of a cell line from a blastic phase chronic myelogenous leukemia patient, are cultured under 5% CO2 atmosphere at 37° C. in RPMI (Gibco, supplied by Invitrogen, Carlsbad, Calif., USA) containing 4.5 g/L glucose, 2 mM L-glutamine, 50 U/ml penicillin, […] streptomycin, 1% essential amino acids, 1% HEPES and 10% bovine fetal serum (FBS).
K562(S) cells to be used for agglutination test have been collected by centrifugation and washed two times with calcium and magnesium free PBS. Then cells have been resuspended at concentration of 10^8 cells/ml in PBS; […] of cell suspension added to each well of a 96 well plate. The peptide has been added at a concentration of 10 μg/ml. The final total volume has been 100 μl. Cell suspension has been incubated at room temp. for 30 minutes. Agglutination rate has been measured using a 96 well plate reader equipped with stirrer. Turbidity of cellular suspension has been measured at 600 nm (OD600 nm) under continuous stirring at 0 and 30 min times. The difference of T0 and T30 readings has been taken as agglutination rate (CV).

[2] = system: intestinal biopsies from celiac patients; test: Organ culture of celiac duodenal mucosa with gliadin PT digest, immunolocalization of immune activation labels (CD25+, ICAM1, HLA-DR); type: cell-based, human
Experimental: (§1) Duodenal mucosa samples have been treated in vitro for 3 and 24 hours using medium, gliadin PT digest (500 μg/mL), p31-43 (20 μg/ml), pRPQ (10 μg/ml). P7mer and pTPO (10 μg/ml) have been used in all the experiments as control peptides.
(§2) 4 μm thick sections of frozen biopsy samples from celiac patients have been fixed in acetone for 10 minutes. Then sections have been incubated for 2 hours at room temp. with following antibodies: anti-phospho-tyrosine PY99 mAb (1:80, IgG2b; Saint Cruz Biotechnology, Saint Cruz, Calif.), phospho-p42/p44 (1:500, polyclonal Ig; Cell Technology Beverly, USA), ICAM1 (1:500, Abcam, Cambridge, BUT, USA), HLA-DR (1:500, Abcam, Cambridge, BUT, USA). Antigene expression and distribution thereof within biopsy sample have been visualized by indirect immunofluorescence as previously described. Monoclonal isotype control (IgG1 and IgG2) has been used as control. Samples have been analyzed using Zeiss LSM510 confocal laser scanning unit (Carl Zeiss, Germany).

[3] = system: biopsies from celiac subjects; test: Organ culture of celiac duodenal mucosa with p31-43, immunolocalization of Py99 and phospho-p42/p44; type: cell-based, human
Experimental: as §1, §2

[4] = system: K562(S) cells; conditions: earlier studies (6-9); cited from earlier work
[5] = system: ICAM-1 in T84 cells; test: Western blotting for expression of ICAM-1 in T84 cells; type: cell-based, human; conditions: 24 hours; for ICAM-1 level in T84 cells: peptide alone, 20 μg/ml, compared to medium only; for ICAM-1 level in T84 cells exposed to p31-43: peptide together with p31-43, 20 μg/ml each
Experimental: T84 human colonic carcinoma cells have been cultured under 5% CO2 atmosphere at 37° C. in 50% DMEM, (Gibco, supplied by Invitrogen, Carlsbad, Calif., USA) and 50% […] containing 4.5 g/L glucose, 2 mM L-glutamine, 50 U/ml penicillin, […] streptomycin, 1% essential amino acids, 1% HEPES and 10% bovine fetal serum (FBS).
T84 cells have been treated with p31-43 peptide in absence and presence of pRPQ, pDAV, p7mer (at peptide concentration of 20 μg/ml) and culture medium only (like negative control) for 24 hours at 37° C.
For WB analysis, T84 cells have been seeded at a concentration of 1×10^5 cells/ml in 12 well plate and shortly treated before confluence was reached. Treatment has been carried out using 20 μg/ml of medium for each peptide (p31-43, p7mer, pDAV, pRPQ) for 24 hours. In order the protecting activity of pDAV and pRPQ towards toxic effect of p31-43 to be tested, a pre-incubation for 3 hours using these peptides before the exposure to p31-43, has been performed. After incubation, cells have been treated with buffer containing 150 mM NaCl, 0.05% sodium dodecyl sulfate (SDS) and 1% Triton X-100. This mixture then has been centrifuged for 5 minutes at 4° C. Protein concentration has been measured according to […]. SDS-(Polyacryl amide Gel Electrophoresis) has been carried out using 4% and 7.5% gel. […] of protein have been loaded for each gel run. Then the proteins have been transferred on nitrocellulose membrane (Biorad). Membranes have been incubated overnight with mice anti-ICAM-1 monoclonal Abs (Abcam, Cambridge, UK) at 1:250 dilution. Successively, after washings, said membrane have been incubated with secondary antibody (peroxidase HRP:3000; Biorad). Membrane occurring proteins are detected using chemiluminescent detection kit (Biorad), according to producer instructions. Blot intensity of protein bands has been evaluated by Biorad ChemiDoc densitometer.

[6] = system: TG2; test: In situ determination of TG2 activity in duodenal mucosa from celiac patients; type: cell-based, human; conditions: co-incubation with p31-43, biopsies from celiac subjects
Experimental: as §1
7 μm diameter sections have been collected on slide, pre-incubated with buffer (965 ml of 100 mmol/L Tris-HCl, pH 7.4, […] of 200 mmol/L CaCl2) for 15 minutes, and then pre-incubated with same buffer added with 10 ml of 10 mmol/L of biotinylated mono-dansylcadaverine (bio-MDC) (Molecular Probes, Leiden, The Netherlands) for 1 hour at room temp. The reaction is stopped using 25 mmol/L of EDTA for 5 minutes, then sections have been fixed in 4% paraformaldeide for 10 minutes. Labelled substrate incorporation has been visualized by incubation with streptavidin-conjugated RPE (1:50; Dako) for 30 minutes. Sections have been visualized fluorescently using Axioxop Zeiss 2 Plus micropurpose (Zeiss, Jena, Germany).

[7] = 10 μg/ml, difference of O.D at 600 nm at 0 and 30 minutes ×100, K562(S) cells
[8] = 500 μg/ml gliadin PT digest, 10 μg/ml peptide
[9] = p31-43 20 μg/ml, peptide 10 μg/ml

Question: For “QQPQWQPF (SEQ ID NO: 15) (peptide corresponding to SEQ ID NO4 sequence wherein X is W) [pW]”, which “(Δ) O.D. (protecting activity)” value [1, 7] is on record?
Answer: −9.1 ± 2.3

Question: With “LDPLIRGILLARPAKL QV (SEQ ID NO: 16) (LDPLIRGILLARPAKLQV; control irrilevant peptide) [TPO control peptide, control irrelevant peptide, reference compound]” as the substance, how does the “protecting effect against the activation induced by gliadin” value ([2]; duodenal biopsies) read?
Answer: lacking of any protecting effect

Question: What about the “protecting effect against the activation induced by p31-43” value ([3]; duodenal biopsies) of the same substance?
Answer: lacking of any protecting effect

Question: For “QQPQYYYQPF (SEQ ID NO: 14) (peptide corresponding to SEQ ID No4 sequence wherein X is three Y) [pYYY]”, which “(Δ) O.D. (protecting activity)” value [1, 7] is on record?
Answer: −7 ± 2.5

Question: What about the “protecting activity towards p31-43 induced agglutination of K562 cells” value [1] of the same substance?
Answer: little higher protecting activity than pGGG

Question: For “QQPQDAVQPF (SEQ ID NO: 1) (mutated omega-secalin peptide) [pDAV, decapeptide identified earlier in wheat peptic-triptic digest (WO9727217)]”, which “(Δ) O.D. (protecting activity)” value [1, 7] is on record?
Answer: −12 ± 1.9

Question: And the “protecting activity towards p31-43 induced agglutination of K562 cells” value [1]?
Answer: prevent p31-43 induced agglutination

Question: What about the “prevention of agglutination of K562(S) cells by gliadin peptides” value [4] of the same substance?
Answer: suitable to prevent the agglutination of K562(S) cells by gliadin peptides

Question: What about the “ICAM-1 level in T84 cells” value [5] of the same substance?
Answer: No meaningful increase

Question: And the “ICAM-1 level in T84 cells exposed to p31-43” value [5]?
Answer: ICAM-1 levels similar to cells exposed only to culture medium

Question: Which results are given for “QQPQQPF (SEQ ID NO: 3) (toxic gliadin peptide from aa 139 to aa 145 of omega-gliadin sequence having accession number AAT74547) [p7mer, 7mer peptide shared by pDAV and pRPQ, known to be toxic in CD, reference compound]”?
Answer: (Δ) O.D. (protecting activity) [1, 7]: 1.5 ± 1.1; agglutinant activity towards K562 cells ([1]; peptide alone): displays also agglutinant activity; (Δ) O.D. (agglutinating activity) ([1]; peptide alone, 10 μg/ml, difference of O.D at 600 nm at 0 and 30 minutes ×100, K562(S) cells): 1.0 ± 0.3; protecting activity towards p31-43 induced agglutination of K562 cells [1]: does not display any protecting effect; ICAM-1 level in T84 cells [5]: increases ICAM-1 intracellular levels; ICAM-1 level in T84 cells ([5]; listed as 7mer): poor increase; ICAM-1 level in T84 cells exposed to p31-43 [5]: does not exert any anti-inflammatory effect; ICAM-1 level in T84 cells exposed to p31-43 ([5]; listed as 7mer): no meaningful decrease

Question: For “QQPQGGGQPF (SEQ ID NO: 13) (peptide corresponding to SEQ ID NO4 sequence wherein X is three G) [pGGG]”, which “(Δ) O.D. (protecting activity)” value [1, 7] is on record?
Answer: −7.9 ± 1.4

Question: And the “protecting activity towards p31-43 induced agglutination of K562 cells” value [1]?
Answer: displayed a protecting activity

Question: Which “p31-43-induced TG2 activity” value [6] does the source give for “QQPQRPQQPF (SEQ ID NO: 2) (peptide corresponding ro omega-secalin from aa 218 to aa 227 codified by the sequence deposited at NCBI with accession number FJ823438) [pRPQ]” here?
Answer: completely inhibited

Question: What about the “p31-43-induced TG2 activity” value ([6]; listed as RPQ peptide) of the same substance?
Answer: meaningfully prevents

Question: What about the “(Δ) O.D. (protecting activity)” value [1, 7] of the same substance?
Answer: −9.8 ± 1.7

Question: And the “protecting activity towards p31-43 induced agglutination of K562 cells” value [1]?
Answer: prevent p31-43 induced agglutination

Question: What about the “gliadin induced increase of HLA-DR expression in mucosa” value [2, 8] of the same substance?
Answer: meaningfully prevents; also recorded: suitable to control

Question: What about the “gliadin induced increase of ICAM1 expression in mucosa” value [2, 8] of the same substance?
Answer: meaningfully prevents; also recorded: suitable to control

Question: And the “gliadin induced increase of T CD25+ cells within lamina propria” value [2, 8]?
Answer: suitable to control

Question: What about the “mucosa immunity stimulating activity” value ([2]; peptide alone, duodenal biopsies from both celiac and healthy control subjects, data not shown) of the same substance?
Answer: lacking in mucosa immunity stimulating activity

Question: What about the “expression increase of Py99” value [3, 9] of the same substance?
Answer: meaningfully prevents

Question: And the “p42/44 phosphorylation induced by p31-43” value [3, 9]?
Answer: meaningfully prevents; also recorded: prevents the increase

Question: What about the “ICAM-1 level in T84 cells” value [5] of the same substance?
Answer: No meaningful increase

Question: And the “ICAM-1 level in T84 cells exposed to p31-43” value [5]?
Answer: ICAM-1 levels similar to cells exposed only to culture medium
